Results published in ChEMBL document CHEMBL5029185, “Discovery of Novel Polycyclic Heterocyclic Derivatives from Evodiamine for the Potential Treatment of Triple-Negative Breast Cancer” (J Med Chem, 2021).
Activity calls are given as the source filed them. No cut-off for these calls is given here.

Key:
[1] = test system: MDA-MB-231; experiment: Effect on Akt expression in human MDA-MB-231 cells at 0.4 uM measured after 48 hrs by Western blot analysis; assay type: functional, cell-based
[2] = test system: MDA-MB-231; experiment: Induction cell cycle arrest in human MDA-MB-231 cells assessed as accumulation at G2 phase at 0.1 uM measured after 48 hrs by PI staining based flow cytometry (reference value: 10.2%); assay type: functional
[3] = Toxicity in PDTX SCID mouse model at 5 to 20 mg/kg measured upto 7 days; assay type: organism-based; settings: in vivo, 168 h, dose 5-20 mg/kg, time <=7 day
[4] = test system: MDA-MB-231; experiment: Induction cell cycle arrest in human MDA-MB-231 cells assessed as accumulation at S phase at 0.2 uM measured after 48 hrs by PI staining based flow cytometry (reference value: 36%); assay type: functional
[5] = test system: HCT-116; experiment: Antiproliferative activity against human HCT-116 cells assessed as inhibition rate incubated for 72 hrs by MTT assay; assay type: functional, cell-based; settings: HCT-116, 72 h
[6] = Ratio of IC50 for antiproliferative activity against human MDA-MB-231 cells transfected with siRNA-Top1 to IC50 for antiproliferative activity against human MDA-MB-231 cells transfected with siRNA-Ctrl assessed as cell viability by MTT assay; assay type: functional
[7] = test system: A549; experiment: Antiproliferative activity against human A549 cells assessed as inhibition rate incubated for 72 hrs by MTT assay; assay type: functional, cell-based; settings: A549, 72 h
[8] = test system: MDA-MB-231; experiment: Induction of mitochondrial membrane disruption in human MDA-MB-231 cells assessed as mitochondrial dysfunction at 0.4 uM measured after 48 hrs by JC-1 staining based flow cytometry (reference value: 3%); assay type: functional
[9] = test system: MDA-MB-231; experiment: Effect on PI3K expression in human MDA-MB-231 cells at 0.4 uM measured after 48 hrs by Western blot analysis; assay type: functional, cell-based
[10] = test system: MDA-MB-231; experiment: Induction cell cycle arrest in human MDA-MB-231 cells assessed as accumulation at G1 phase at 0.2 uM measured after 48 hrs by PI staining based flow cytometry (reference value: 53.7%); assay type: functional
[11] = test system: MDA-MB-231; experiment: Induction cell cycle arrest in human MDA-MB-231 cells assessed as accumulation at S phase at 0.4 uM measured after 48 hrs by PI staining based flow cytometry (reference value: 36%); assay type: functional
[12] = test system: MDA-MB-231; experiment: Induction of mitochondrial membrane disruption in human MDA-MB-231 cells assessed as mitochondrial dysfunction at 0.1 uM measured after 48 hrs by JC-1 staining based flow cytometry (reference value: 3%); assay type: functional
[13] = test system: MDA-MB-231; experiment: Induction of mitochondrial membrane disruption in human MDA-MB-231 cells assessed as mitochondrial dysfunction at 0.2 uM measured after 48 hrs by JC-1 staining based flow cytometry (reference value: 3%); assay type: functional
[14] = test system: MDA-MB-231; experiment: Induction of apoptosis in human MDA-MB-231 cells assessed as increase in cleaved caspase-3 expression at 0.1 to 0.4 uM measured after 48 hrs by Western blot analysis; assay type: functional, cell-based; settings: dose 0.1-0.4 µM
[15] = test system: MDA-MB-231; experiment: Induction cell cycle arrest in human MDA-MB-231 cells assessed as accumulation at G1 phase at 0.4 uM measured after 48 hrs by PI staining based flow cytometry (reference value: 53.7%); assay type: functional
[16] = test system: MDA-MB-231; experiment: Induction cell cycle arrest in human MDA-MB-231 cells assessed as accumulation at G1 phase at 0.1 uM measured after 48 hrs by PI staining based flow cytometry (reference value: 53.7%); assay type: functional
[17] = test system: MDA-MB-231; experiment: Induction of apoptosis in human MDA-MB-231 cells assessed as increase in cleaved PARP level at 0.4 uM incubated for 48 hrs by Western blot analysis; assay type: functional, cell-based
[18] = test system: MDA-MB-231; experiment: Induction cell cycle arrest in human MDA-MB-231 cells assessed as accumulation at S phase at 0.1 uM measured after 48 hrs by PI staining based flow cytometry (reference value: 36%); assay type: functional
[19] = test system: MDA-MB-231; experiment: Induction of apoptosis in human MDA-MB-231 cells assessed as increase in cytochrome c expression at 0.1 to 0.4 uM measured after 48 hrs by Western blot analysis; assay type: functional, cell-based; settings: dose 0.1-0.4 µM
[20] = test system: MDA-MB-231; experiment: Inhibition of PI3K in human MDA-MB-231 cells assessed as Akt phosphorylation at 0.4 uM measured after 48 hrs by Western blot analysis; assay type: cell-based
[21] = test system: 4T1; experiment: Antiproliferative activity against mouse 4T1 cells assessed as inhibition rate incubated for 72 hrs by MTT assay; assay type: functional, cell-based; settings: 4T1, 72 h
[22] = biological target: T1, DNA topoisomerase 1 (Homo sapiens) (UniProt P11387); experiment: Induction of topoisomerase 1-DNA cleavable complex in human MDA-MB-231 cells assessed as decrease in free Top1 in nuclear extract at 30 uM measured up to 9 hrs by Immunoband depletion assay; assay type: cell-based; settings: time hrs <=9
T1 sequence (whole entry): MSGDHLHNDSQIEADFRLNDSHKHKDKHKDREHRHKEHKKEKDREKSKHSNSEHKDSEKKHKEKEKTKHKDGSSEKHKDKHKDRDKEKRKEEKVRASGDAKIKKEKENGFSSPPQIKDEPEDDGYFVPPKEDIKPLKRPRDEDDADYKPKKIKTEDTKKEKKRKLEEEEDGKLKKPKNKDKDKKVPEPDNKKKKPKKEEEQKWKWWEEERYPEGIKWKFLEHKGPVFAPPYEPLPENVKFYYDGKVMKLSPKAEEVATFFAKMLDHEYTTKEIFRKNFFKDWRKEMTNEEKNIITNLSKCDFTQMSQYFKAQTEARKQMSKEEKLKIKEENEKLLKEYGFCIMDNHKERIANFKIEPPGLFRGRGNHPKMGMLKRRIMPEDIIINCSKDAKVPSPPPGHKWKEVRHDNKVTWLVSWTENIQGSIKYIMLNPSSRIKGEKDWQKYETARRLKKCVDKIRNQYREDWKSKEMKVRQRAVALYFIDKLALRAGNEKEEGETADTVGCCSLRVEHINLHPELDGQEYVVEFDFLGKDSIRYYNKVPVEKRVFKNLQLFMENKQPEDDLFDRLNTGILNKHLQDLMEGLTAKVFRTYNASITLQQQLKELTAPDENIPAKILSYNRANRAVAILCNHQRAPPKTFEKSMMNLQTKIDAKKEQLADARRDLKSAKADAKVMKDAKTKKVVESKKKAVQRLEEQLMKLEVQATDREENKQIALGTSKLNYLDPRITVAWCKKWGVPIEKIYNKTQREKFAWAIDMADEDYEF

[23] = test system: MDA-MB-231; experiment: Antiproliferative activity against human MDA-MB-231 cells assessed as inhibition rate at 10 uM incubated for 72 hrs by MTT assay; assay type: functional
[24] = Selectivity index, ratio of IC50 for human MCF-10A cells to IC50 for human MDA-MB-231 cells; settings: MCF-10A cells versus MDA-MB-231 cells
[25] = test system: H22; experiment: Antiproliferative activity against mouse H22 cells assessed as inhibition rate incubated for 72 hrs by MTT assay; assay type: functional, cell-based; settings: H22, 72 h
[26] = test system: MDA-MB-231; experiment: Induction of apoptosis in human MDA-MB-231 cells assessed as changes in cell morphology and nuclei at 0.1 to 0.4 uM by Hoechst 33342 staining based fluorescence microscopy; assay type: functional; settings: dose 0.1-0.4 µM
[27] = biological target: DNA topoisomerase 2-alpha (Homo sapiens) (UniProt P11388); experiment: Inhibition of topoisomerase 2 (unknown origin) assessed as relaxation of supercoiled kDNA at 100 to 500 uM incubated for 30 mins by agarose gel electrophoresis; settings: dose 100-500 µM
Chain of DNA topoisomerase 2-alpha (Homo sapiens) (P11388 whole entry): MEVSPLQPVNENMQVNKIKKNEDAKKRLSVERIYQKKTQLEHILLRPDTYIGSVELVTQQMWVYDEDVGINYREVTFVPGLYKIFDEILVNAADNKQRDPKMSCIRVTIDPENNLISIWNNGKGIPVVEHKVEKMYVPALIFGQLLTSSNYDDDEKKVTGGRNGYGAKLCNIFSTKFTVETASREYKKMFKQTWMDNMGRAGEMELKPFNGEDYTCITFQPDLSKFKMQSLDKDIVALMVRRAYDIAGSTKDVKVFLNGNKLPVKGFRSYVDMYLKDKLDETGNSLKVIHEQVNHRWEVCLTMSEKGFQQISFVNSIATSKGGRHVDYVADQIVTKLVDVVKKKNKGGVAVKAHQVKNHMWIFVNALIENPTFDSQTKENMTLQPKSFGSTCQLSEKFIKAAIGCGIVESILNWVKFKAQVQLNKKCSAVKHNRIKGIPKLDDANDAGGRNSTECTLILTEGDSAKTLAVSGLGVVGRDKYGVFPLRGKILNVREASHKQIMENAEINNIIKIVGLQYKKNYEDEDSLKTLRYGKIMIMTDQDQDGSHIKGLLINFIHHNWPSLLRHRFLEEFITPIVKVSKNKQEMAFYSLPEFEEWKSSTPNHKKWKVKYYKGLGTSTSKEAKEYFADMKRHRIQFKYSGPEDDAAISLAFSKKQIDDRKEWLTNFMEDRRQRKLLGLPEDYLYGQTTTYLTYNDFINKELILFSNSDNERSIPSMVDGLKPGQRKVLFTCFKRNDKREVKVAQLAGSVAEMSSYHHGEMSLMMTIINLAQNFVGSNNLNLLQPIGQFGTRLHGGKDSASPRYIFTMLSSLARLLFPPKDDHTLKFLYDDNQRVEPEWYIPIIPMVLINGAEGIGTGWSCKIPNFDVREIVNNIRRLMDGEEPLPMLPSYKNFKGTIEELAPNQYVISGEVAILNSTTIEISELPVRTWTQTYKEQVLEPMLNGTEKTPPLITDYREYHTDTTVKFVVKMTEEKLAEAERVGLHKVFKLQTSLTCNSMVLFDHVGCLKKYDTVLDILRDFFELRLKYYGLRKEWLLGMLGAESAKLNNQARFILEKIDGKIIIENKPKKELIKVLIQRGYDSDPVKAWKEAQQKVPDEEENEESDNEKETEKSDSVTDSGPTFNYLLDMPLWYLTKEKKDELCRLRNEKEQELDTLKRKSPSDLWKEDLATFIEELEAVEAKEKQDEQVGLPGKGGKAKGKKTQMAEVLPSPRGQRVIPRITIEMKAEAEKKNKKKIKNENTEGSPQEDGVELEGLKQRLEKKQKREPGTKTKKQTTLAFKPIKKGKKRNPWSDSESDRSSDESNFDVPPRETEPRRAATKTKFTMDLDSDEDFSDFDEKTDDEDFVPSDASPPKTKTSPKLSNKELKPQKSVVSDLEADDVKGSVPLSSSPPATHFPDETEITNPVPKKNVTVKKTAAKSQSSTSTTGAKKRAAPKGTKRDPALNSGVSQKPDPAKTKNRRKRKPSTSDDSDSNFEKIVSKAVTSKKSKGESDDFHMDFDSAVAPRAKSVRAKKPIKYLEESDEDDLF

Question: Which Activity [1] does the source give for O=C1c2cc(Cl)ccc2OC2c3oc4ccc(O)cc4c3CCN12 (configuration not stated) here?
Answer: inactive

Question: What about the Activity [2] of the same molecule?
Answer: 7.2%

Question: What about the Activity [3] of the same molecule?
Answer: Non-Toxic

Question: And the Activity [4]?
Answer: 22.4%

Question: What about the IC50 [5] of the same molecule?
Answer: 760 nM

Question: And the “Ratio IC50” value [6]?
Answer: 12.7

Question: And the IC50 [7]?
Answer: 5.24 µM

Question: And the Activity [8]?
Answer: 25%

Question: And the Activity [9]?
Answer: inactive

Question: And the Activity [10]?
Answer: 72.3%

Question: And the Activity [11]?
Answer: 22.9%

Question: What about the Activity [12] of the same molecule?
Answer: 12.2%

Question: And the Activity [13]?
Answer: 18.5%

Question: And the Activity [14]?
Answer: Active

Question: What about the Activity [15] of the same molecule?
Answer: 70.2%

Question: What about the Activity [16] of the same molecule?
Answer: 68.1%

Question: What about the Activity [17] of the same molecule?
Answer: Active

Question: And the Activity [18]?
Answer: 24.7%

Question: What about the Activity [19] of the same molecule?
Answer: Active

Question: What about the inhibition [20] of the same molecule?
Answer: Active

Question: And the IC50 [21]?
Answer: 730 nM

Question: And the Activity [22]?
Answer: Active

Question: And the inhibition at 10 µM [23]?
Answer: 84.3%

Question: And the selectivity ratio [24]?
Answer: 18.8

Question: What about the IC50 [25] of the same molecule?
Answer: 1020 nM

Question: And the Activity [26]?
Answer: Active

Question: And the inhibition [27]?
Answer: inactive
